The record followed here is US11331290B2, “Niclosamide for the treatment of cancer metastasis” (Max-Delbrück-Centrum für Molekulare Medizin in der …, priority 2011, dated 2022).

Each structure is given as a SMILES string.

For assay [1], the system named is HAB-92 wt cells. In words: Boyden chamber transwell migration assay. Type of assay: cell-based, human. The settings on record: 1 μM, 24 h, statistically not significant. As to the method:
(§1) HCT116, SW620, LS174T, SW480 and DLD-1 cells were used in cell migration and invasion analysis performed with Boyden chamber assay. 400 μL containing 2.5×10^5 cells were seeded into each transwell chamber with filter membranes of 12.0 μm pore size (Millipore, Schwalbach, Germany). For invasion filter membranes were coated with 50 μL Matrigel (diluted 1:3 in RPMI-1640; BD Biosciences) 10 minutes before cells were seeded. Fresh medium (600 μL) were added to the bottom chamber and cells were allowed to attach to the insets for 15 hours. Both chambers were treated with 1 μM niclosamide or the respective amount of DMSO and incubated at 37° C. and 5% CO2 in a humidified incubator for 24 hours. Afterwards insets were removed and cells that had migrated through the membrane to the lower chamber were trypsinized and counted in a Neubauer chamber (LO-Laboroptik, Bad Homburg, Germany). Each well was counted ten times. Each migration or invasion experiment was performed in duplicate. The average number of migrated or invaded cells was determined for at least three independent experiments.
(§2) For WNT pathway analysis the following cells were applied: HCT116 cells (heterozygous for gain-of-function-mutated CTNNB1; wt/mut), HAB-68mut cells (deletion mutant of HCT116, expressing only gain-of-function-mutated CTNNB1: −/mut) and HAB-92 wt cells (deletion mutant of HCT116, expressing only wild-type CTNNB1: wt/−). (A) CTNNB1 genotype dependent effect of niclosamide on LEF/TCF transcription factor reporter gene expression. Cells were treated with 1 μM niclosamide for 24 hours. Reporter gene expression was determined by luciferase activity measurement. For each condition and cell line TOPflash expression was normalized to FOPflash expression. (B) CTNNB1 genotype dependent effect of niclosamide on S100A4 expression. Cells were treated with 1 μM niclosamide for 24 hours. S100A4 expression was analyzed by qRT-PCR and immunoblot. (C) CTNNB1 genotype dependent effect of niclosamide on migration rates. Cells were treated with 1 μM niclosamide for 24 hours and cell migration was determined by Boyden chamber assay. Data represents mean±SE of at least three independent experiments. Differences were analyzed by Student's t test (n.s.; not statistically significant). (D) Nuclear localization of CTNNB1 under niclosamide treatment. Nuclear extracts of HCT116 cells treated with the indicated concentrations of niclosamide for 18 hours were analyzed by immunoblot. (E) Effect of niclosamide on CTNNB1/TCF complex. Nuclear extracts of HCT116 cells treated with the indicated concentrations of niclosamide for 18 hours were analyzed by EMSA for the TCF-binding site of the S100A4 promoter. Supershift was performed by addition of a monoclonal anti-CTNNB1 antibody. […]

Assay [2] deals with HAB-68mut cells. In words: Boyden chamber transwell migration assay. Format: cell-based, human. The note with it: 1 μM, 24 h. Here is the method:
as §1, §2

Regarding `O=C(Nc1ccc([N+](=O)[O-])cc1Cl)c1cc(Cl)ccc1O` [niclosamide, 2′,5-dichloro-4′-nitrosalicylanilide], the “migration rate, mean (relative to HCT116 control)” value was found to be 0.32 in assay [1] (control 0.36) and 0.39 in assay [2] (control 1.30). Further, the “migration rate, mean difference control vs niclosamide” value in assay [1] is listed as 0.04; in assay [2] it was 0.91.
